Legend:
[1] = biological target: T1, recombinant human Cox-2 (r-hu Cox-2) (Homo sapiens, UniProt P35354); assay: Recombinant human PGHS-2 enzyme assay (RHUCX2); assay type: biochemical; conditions: for inhibition at 0.1 µM / inhibition at 10 µM / inhibition at 0.01 µM / inhibition at 1 µM: read-out: RHUCX2 % Inh. at Dose; for IC50: read-out: RHUCX2 IC50 (parenthetical value)
T1 construct: made in house; host or cells: baculovirus/Sf9 insect cells (microsomes)
T1 sequence (P35354 18-604): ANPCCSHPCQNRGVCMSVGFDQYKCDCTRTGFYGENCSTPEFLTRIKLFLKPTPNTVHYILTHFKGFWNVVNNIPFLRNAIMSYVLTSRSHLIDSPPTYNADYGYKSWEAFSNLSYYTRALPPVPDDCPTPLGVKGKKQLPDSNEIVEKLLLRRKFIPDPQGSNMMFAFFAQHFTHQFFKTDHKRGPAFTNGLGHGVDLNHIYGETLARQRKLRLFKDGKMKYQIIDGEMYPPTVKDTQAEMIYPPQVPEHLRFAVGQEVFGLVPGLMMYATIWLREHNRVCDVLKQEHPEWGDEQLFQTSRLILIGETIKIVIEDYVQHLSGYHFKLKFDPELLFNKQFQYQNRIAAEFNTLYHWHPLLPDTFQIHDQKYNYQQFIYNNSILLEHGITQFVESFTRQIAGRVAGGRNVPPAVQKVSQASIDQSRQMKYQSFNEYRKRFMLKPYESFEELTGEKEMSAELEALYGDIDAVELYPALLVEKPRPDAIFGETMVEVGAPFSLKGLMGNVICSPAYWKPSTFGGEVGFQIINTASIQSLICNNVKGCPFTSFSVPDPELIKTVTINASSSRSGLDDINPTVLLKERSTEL
How it was run: (§1)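 PGE2 production measured by enzyme immunoassay with standards in the same milieu. Inhibition was computed versus control group mean and IC50 estimated by linear regression.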

[2] = biological target: T2, recombinant human Cox-1 (r-hu Cox1) (Homo sapiens, UniProt P23219); assay: Recombinant human PGHS-1 enzyme assay (RHUCX1); assay type: biochemical; conditions: read-out: RHUCX1 % Inh. at Dose
T2 construct: made in house; host or cells: baculovirus/Sf9 insect cells (microsomes)
How it was run: as §1

T2 sequence (P23219 24-599): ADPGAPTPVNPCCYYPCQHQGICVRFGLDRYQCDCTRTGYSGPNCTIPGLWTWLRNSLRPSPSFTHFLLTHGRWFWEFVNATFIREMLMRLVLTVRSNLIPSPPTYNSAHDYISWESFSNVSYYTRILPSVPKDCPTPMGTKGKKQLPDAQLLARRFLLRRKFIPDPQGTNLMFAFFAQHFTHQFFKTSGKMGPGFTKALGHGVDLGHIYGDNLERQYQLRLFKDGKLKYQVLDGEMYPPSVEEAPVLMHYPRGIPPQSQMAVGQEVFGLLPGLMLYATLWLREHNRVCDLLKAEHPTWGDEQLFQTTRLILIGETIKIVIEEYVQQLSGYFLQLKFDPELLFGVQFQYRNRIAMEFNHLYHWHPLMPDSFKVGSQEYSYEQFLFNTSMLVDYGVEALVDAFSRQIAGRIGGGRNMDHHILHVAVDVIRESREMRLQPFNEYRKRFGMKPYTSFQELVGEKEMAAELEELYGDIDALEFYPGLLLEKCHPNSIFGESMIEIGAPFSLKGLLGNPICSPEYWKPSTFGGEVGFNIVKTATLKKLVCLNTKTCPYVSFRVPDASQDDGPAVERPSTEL

| Structure (SMILES) | inhibition at 0.1 µM [1] [%] | inhibition at 10 µM [2] [%] | inhibition at 100 µM [2] [%] | melting point [°C] | inhibition at 10 µM [1] [%] | IC50 [1] [nM] | inhibition at 0.01 µM [1] [%] | inhibition at 1 µM [1] [%] | inhibition at 1 µM [2] [%] |
| --- | --- | --- | --- | --- | --- | --- | --- | --- | --- |
| NS(=O)(=O)c1ccc(-c2cnn(Cc3ccc(F)cc3)c(=O)c2-c2ccc(F)cc2)cc1 [Example 150, 2-(4-Fluorobenzyl)-4-(4-fluorophenyl)-5-[4-(aminosulfonyl)phenyl]-3(2H)-pyridazinone] | 100 | 39 | 56 | 237 to 239 | – | – | – | – | – |
| CCCCC(CC)COc1c(-c2ccc(S(C)(=O)=O)cc2)cnn(-c2ccc(F)cc2)c1=O (centres unmarked) [Example 178, 2-(4-Fluorophenyl)-4-(2-ethyl-1-hexyloxy)-5-[4-(methylsulfonyl)phenyl]-3(2H)-pyridazinone] | – | – | 6 | 120 to 122 | 34 | – | – | – | – |
| CS(=O)(=O)c1ccc(-c2cnn(-c3cc(Cl)cc(Cl)c3)c(=O)c2-c2ccc(F)cc2)cc1 [Example 188, 2-(3,5-Dichlorophenyl)-4-(4-fluorophenyl)-5-[4-(methylsulfonyl)phenyl]-3-(2H)-pyridazinone] | – | – | 18 | 289 to 294 | – | 526 | – | – | – |
| CS(=O)(=O)c1ccc(-c2cnn(-c3ccc(F)cc3)c(=O)c2Cc2ccccc2)cc1 [Example 230, 2-(4-Fluorophenyl)-4-benzyl-5-[4-(methylsulfonyl)phenyl]-3(2H)-pyridazinone] | – | – | 4 | 180 to 182 | – | 215 | – | – | – |
| CS(=O)(=O)c1ccc(-c2cnn(-c3ccc(F)c(F)c3)c(=O)c2C2CCCCC2)cc1 [Example 232, 2-(3,4-Difluorophenyl)-4-cyclohexyl-5-[4-(methylsulfonyl)phenyl]-3(2H)-pyrdazinone] | – | – | 23 | 80 to 83 | – | 24 | – | – | – |
| Cc1ccc(-c2c(-c3ccc(S(C)(=O)=O)cc3)cnn(-c3ccc(F)c(F)c3)c2=O)cc1 [Example 234] | – | – | 0 | 190 to 192 | – | 328 | – | – | – |
| Cc1cc(-c2c(-c3ccc(S(C)(=O)=O)cc3)cnn(-c3ccc(F)c(F)c3)c2=O)ccc1F [Example 235, 2-(3,4-Difluorophenyl)-4-(4-fluoro-3-methylphenyl)-5-[4-(methylsulfonyl)phenyl]-3(2H)-pyridazinone] | – | – | 22 | 166 to 168 | – | 210 | – | – | – |
| CS(=O)(=O)c1ccc(-c2cnn(CC(F)(F)F)c(=O)c2C2CCCCC2)cc1 [Example 240, 2-(2,2,2-Trifluoroethyl)-4-cyclohexyl-5-[4-(methylsulfonyl)phenyl]-3(2H)-pyridazinone] | – | – | 14 | 215 to 218 | – | 297 | – | – | – |
| CS(=O)(=O)c1ccc(-c2cnn(-c3ccc(F)c(Cl)c3)c(=O)c2Cc2cccc(F)c2)cc1 [Example 249, 2-(3-Chloro-4-fluorophenyl)-4-(3-fluorobenzyl)-5-[4-(methylsulfonyl)phenyl]-3(2H)-pyridazinone] | 68 | – | 6 | 101 to 103 | – | – | 43 | 98 | – |
| NS(=O)(=O)c1ccc(-c2cnn(-c3ccc(F)cc3)c(=O)c2Cc2cccc(F)c2)cc1 [Example 253, 2-(4-Fluorophenyl)-4-(3-fluorobenzyl)-5-[4-(aminosulfonyl)phenyl]-3(2H)-pyridazinone] | – | 29 | 77 | 199 to 202 | – | 272 | – | – | – |
| CS(=O)(=O)c1ccc(-c2cnn(-c3ccc(F)c(F)c3)c(=O)c2C#Cc2ccccc2)cc1 [Example 254, 2-(3,4-Difluorophenyl)-4-(phenylethynyl)-5-[4-(methylsulfonyl)phenyl]-3(2H)-pyridazinone] | 48 | – | 7 | 211 to 213 | – | – | – | 84 | – |
| CS(=O)(=O)c1ccc(-c2cnn(CC(F)(F)F)c(=O)c2Oc2cccnc2)cc1 [Example 265, 2-(2,2,2-Trifluoroethyl)-4-(3-pyridyloxy)-5-[4-(methylsulfonyl)phenyl]-3(2H)-pyridazinone] | 33 | – | 8 | 191 to 193 | 53 | – | – | 48 | – |
| CS(=O)(=O)c1ccc(-c2cnn(-c3ccc(F)c(F)c3)c(=O)c2Oc2ccc(Cl)cc2)cc1 [Example 281, 2-(3,4-Difluorophenyl)-4-(4-chlorophenoxy)-5-[4-(methylsulfonyl)phenyl]-3(2H)-pyridazinone] | 52 | – | 7 | 192 to 194 | – | – | 47 | 71 | – |
| CS(=O)(=O)c1ccc(-c2cnn(-c3ccc(F)cc3)c(=O)c2N2CCCCC2)cc1 [Example 355, 2-(4-Fluorophenyl)-4-(1-piperidinyl)-5-[4-(methylsulfonyl)phenyl]-3(2H)-pyridazinone] | 46 | – | 0 | 80 to 100 | 79 | – | – | 66 | – |
| CS(=O)(=O)c1ccc(-c2cnn(-c3cccc(Cl)c3)c(=O)c2Cc2ccc(F)cc2)cc1 [Example 369, 2-(3-Chlorophenyl)-4-(4-fluorobenzyl)-5-[4-(methylsulfonyl)phenyl]-3(2H)-pyridazinone] | 48 | – | 0 | 183 to 185 | – | – | – | 70 | – |
| Cc1ccc(-c2c(-c3ccc(S(C)(=O)=O)cc3)cnn(-c3ccc(F)c(F)c3)c2=O)cc1F [Example 371, 2-(3,4-Difluorophenyl)-4-(3-fluoro-4-methylphenyl)-5-[4-(methylsulfonyl)phenyl]-3(2H)-pyridazinone] | – | – | 8 | 204 to 206 | – | 166 | – | – | – |
| CS(=O)(=O)c1ccc(-c2cnn(-c3cccc(Cl)c3)c(=O)c2CCc2ccccc2)cc1 [Example 372, 2-(3-Chlorophenyl)-4-(phenethyl)-5-[4-(methylsulfonyl)phenyl]-3(2H)-pyridazinone] | 59 | – | 0 | 142 to 145 | 94 | – | – | 88 | – |
| CS(=O)(=O)c1ccc(-c2cnn(-c3cccc(Cl)c3)c(=O)c2OCc2ccccc2)cc1 [Example 374, 2-(3-Chlorophenyl)-4-(benzyloxy)-5-[4-(methylsulfonyl)phenyl]-3(2H)-pyridazinone] | – | – | 2 | 110 to 113 | – | 20 | – | – | – |
| Cc1ccc(-c2c(-c3ccc(S(N)(=O)=O)cc3)cnn(-c3ccc(F)c(F)c3)c2=O)cc1F [Example 386, 2-(3,4-Difluorophenyl)-4-(3-fluoro-4-methylphenyl)-5-[4-(aminosulfonyl)phenyl]-3(2H)-pyridazinone] | 63 | – | 58 | 198 to 200 | – | – | 58 | 83 | 47 |
| Cc1cc(-c2c(-c3ccc(S(N)(=O)=O)cc3)cnn(-c3ccc(F)c(F)c3)c2=O)ccc1F [Example 402, 2-(3,4-Difluorophenyl)-4-(4-fluoro-3-methylphenyl)-5-[4-(aminosulfonyl)phenyl]-3(2H)-pyridazinone] | – | – | – | 243 to 245 | – | 221 | – | – | 89 |
| CS(=O)(=O)c1ccc(-c2cnn(-c3cccc(Cl)c3)c(=O)c2Oc2cccc(F)c2)cc1 [Example 411, 2-(3-Chlorophenyl)-4-(3-fluorophenoxy)-5-[4-(methylsulfonyl)phenyl]-3(2H)-pyridazinone] | – | 96 | – | 178 to 180 | – | 9 | – | – | 81 |
| CC(C)CCCOc1c(-c2ccc(S(C)(=O)=O)cc2)cnn(-c2cccc(Cl)c2)c1=O [Example 413] | – | – | 0 | 139 to 140 | – | 110 | – | – | – |
| CC(C)CCCc1c(-c2ccc(S(C)(=O)=O)cc2)cnn(-c2ccc(F)cc2)c1=O [Example 420, 2-(4-Fluorophenyl)-4-(4-methylpentyl)-5-[4-(methylsulfonyl)phenyl]-3(2H)-pyridazinone] | – | – | 29 | 112 to 115 | – | 323 | – | – | – |
| CC(C)=CCOc1c(-c2ccc(S(C)(=O)=O)cc2)cnn(-c2cccc(Cl)c2)c1=O [Example 423, 2-(3-Chlorophenyl)-4-(3-methyl-2-butenoxy)-5-[4-(methylsulfonyl)phenyl]-3(2H)-pyridazinone] | 68 | – | 0 | 113 to 115 | – | – | 36 | 87 | – |

Reference: patent publication US20020028938A1, “Prostaglandin endoperoxide H synthase biosynthesis inhibitors” (priority 1997, published 2002)
